Measured values taken from ChEMBL document CHEMBL5724914, “Linking interpersonal differences in gut microbiota composition and drug biotransformation activity” (2024).

Columns and labels:
[1] = human gut metagenome, 24 h, 2 µM
[2] = (§1) The drug is tested on WLS-098 corresponding to human gut metagenome with ENA study accession number: PRJEB37062 and ENA sample accession number: ERS12561754 for biotransformation under anaerobic condition. The drug concentrations were measured over 9 timepoints collected between 0 and 24 hours of incubation by liquid-chromatography-coupled mass spectrometry (LC–MS); conditions: 2 µM
[3] = as §1, with “Z-008” for “WLS-098”, “to” for “to human gut”, “ERS12561808” for “ERS12561754”; conditions: 2 µM
[4] = as §1, with “WLS-350” for “WLS-098”, “ERS12561789” for “ERS12561754”; conditions: 2 µM
[5] = as §1, with “Z-028” for “WLS-098”, “mouse” for “human”, “ERS12561827” for “ERS12561754”; conditions: 2 µM
[6] = as §1, with “Z-009” for “WLS-098”, “pig” for “human”, “ERS12561809” for “ERS12561754”; conditions: 2 µM
[7] = as §1, with “Z-023” for “WLS-098”, “to” for “to human gut”, “ERS12561822” for “ERS12561754”; conditions: 2 µM
[8] = as §1, with “Z-030” for “WLS-098”, “mouse” for “human”, “ERS12561829” for “ERS12561754”; conditions: 2 µM
[9] = human gut metagenome, 24 h, 2 µM; remark: listed apart in the source
[10] = human gut metagenome, 24 h, 2 µM; remark: listed apart in the source
[11] = human gut metagenome, 24 h, 2 µM; remark: listed apart in the source
[12] = as §1, with “Z-026” for “WLS-098”, “to” for “to human gut”, “ERS12561825” for “ERS12561754”; conditions: 2 µM
[13] = human gut metagenome, 24 h, 2 µM; remark: listed apart in the source
[14] = as §1, with “Z-019” for “WLS-098”, “rat” for “human”, “ERS12561818” for “ERS12561754”; conditions: 2 µM
[15] = human gut metagenome, 24 h, 2 µM; remark: listed apart in the source
[16] = human gut metagenome, 24 h, 2 µM; remark: listed apart in the source
[17] = as §1, with “WLS-052” for “WLS-098”, “ERS12561747” for “ERS12561754”; conditions: 2 µM
[18] = as §1, with “WLS-027” for “WLS-098”, “ERS12561744” for “ERS12561754”; conditions: 2 µM
[19] = as §1, with “Z-021” for “WLS-098”, “to” for “to human gut”, “ERS12561820” for “ERS12561754”; conditions: 2 µM
[20] = as §1, with “Z-002” for “WLS-098”, “rabbit” for “human”, “ERS12561802” for “ERS12561754”; conditions: 2 µM
Also: call rule not given here.

SMILES | Bacterial Biotransformation [1] | Bacterial Biotransformation [2] | Bacterial Biotransformation [3] | Bacterial Biotransformation [4] | Bacterial Biotransformation [5] | Bacterial Biotransformation [6] | Bacterial Biotransformation [7] | Bacterial Biotransformation [8] | Bacterial Biotransformation [9] | Bacterial Biotransformation [10] | Bacterial Biotransformation [11] | Bacterial Biotransformation [12] | Bacterial Biotransformation [13] | Bacterial Biotransformation [14] | Bacterial Biotransformation [15] | Bacterial Biotransformation [16] | Bacterial Biotransformation [17] | Bacterial Biotransformation [18] | Bacterial Biotransformation [19] | Bacterial Biotransformation [20]
CCOC(=O)[C@H](CCc1ccccc1)N[C@H]1CCc2ccccc2N(CC(=O)O)C1=O [BENAZEPRIL] | Compound metabolized | Compound metabolized | Compound metabolized | Compound metabolized | Compound metabolized | Compound metabolized | Compound metabolized | Compound metabolized | Compound metabolized | Compound metabolized | Compound metabolized | Compound metabolized | Compound metabolized | Compound NOT metabolized | Compound metabolized | Compound metabolized | Compound metabolized | Compound metabolized | Compound metabolized | Compound metabolized
CN1CCN(C2=Nc3cc(Cl)ccc3Nc3ccccc32)CC1 [CLOZAPINE] | Compound metabolized | Compound metabolized | Compound NOT metabolized | Compound metabolized | Compound NOT metabolized | Compound NOT metabolized | Compound metabolized | Compound NOT metabolized | Compound metabolized | Compound metabolized | Compound metabolized | Compound NOT metabolized | Compound metabolized | Compound NOT metabolized | Compound NOT metabolized | Compound NOT metabolized | Compound NOT metabolized | Compound metabolized | Compound NOT metabolized | Compound metabolized
Clc1ccc(Cn2c(CN3CCCC3)nc3ccccc32)cc1 [CLEMIZOLE] | Compound NOT metabolized | Compound metabolized | Compound NOT metabolized | Compound metabolized | Compound NOT metabolized | Compound NOT metabolized | Compound metabolized | Compound NOT metabolized | Compound metabolized | Compound metabolized | Compound metabolized | Compound NOT metabolized | Compound metabolized | Compound NOT metabolized | Compound NOT metabolized | Compound NOT metabolized | Compound metabolized | Compound metabolized | Compound metabolized | Compound metabolized
OC(Cn1cncn1)(Cn1cncn1)c1ccc(F)cc1F [FLUCONAZOLE] | Compound NOT metabolized | Compound metabolized | Compound NOT metabolized | Compound metabolized | Compound NOT metabolized | Compound NOT metabolized | Compound metabolized | Compound NOT metabolized | Compound metabolized | Compound NOT metabolized | Compound metabolized | Compound NOT metabolized | Compound NOT metabolized | Compound NOT metabolized | Compound metabolized | Compound NOT metabolized | Compound NOT metabolized | Compound metabolized | Compound metabolized | Compound metabolized
Nc1ccc(/N=N/c2ccccc2)c(N)n1 [PHENAZOPYRIDINE] | Compound metabolized | Compound metabolized | Compound metabolized | Compound metabolized | Compound metabolized | Compound metabolized | Compound metabolized | Compound metabolized | Compound metabolized | Compound metabolized | Compound metabolized | Compound metabolized | Compound metabolized | Compound metabolized | Compound metabolized | Compound metabolized | Compound metabolized | Compound metabolized | Compound metabolized | Compound metabolized
O=C(O)CCc1nc(-c2ccccc2)c(-c2ccccc2)o1 [OXAPROZIN] | Compound metabolized | Compound metabolized | Compound NOT metabolized | Compound metabolized | Compound NOT metabolized | Compound NOT metabolized | Compound metabolized | Compound NOT metabolized | Compound metabolized | Compound metabolized | Compound metabolized | Compound NOT metabolized | Compound metabolized | Compound NOT metabolized | Compound NOT metabolized | Compound metabolized | Compound metabolized | Compound metabolized | Compound metabolized | Compound metabolized
Cc1ccc(-c2cc(C(F)(F)F)nn2-c2ccc(S(N)(=O)=O)cc2)cc1 [CELECOXIB] | Compound metabolized | Compound NOT metabolized | Compound NOT metabolized | Compound NOT metabolized | Compound NOT metabolized | Compound NOT metabolized | Compound NOT metabolized | Compound NOT metabolized | Compound metabolized | Compound metabolized | Compound metabolized | Compound NOT metabolized | Compound metabolized | Compound NOT metabolized | Compound metabolized | Compound NOT metabolized | Compound metabolized | Compound metabolized | Compound NOT metabolized | Compound NOT metabolized
CCc1nc(N)nc(N)c1-c1ccc(Cl)cc1 [PYRIMETHAMINE] | Compound NOT metabolized | Compound metabolized | Compound NOT metabolized | Compound NOT metabolized | Compound NOT metabolized | Compound NOT metabolized | Compound NOT metabolized | Compound NOT metabolized | Compound NOT metabolized | Compound NOT metabolized | Compound metabolized | Compound NOT metabolized | Compound NOT metabolized | Compound NOT metabolized | Compound NOT metabolized | Compound NOT metabolized | Compound NOT metabolized | Compound NOT metabolized | Compound NOT metabolized | Compound metabolized
